Assay [1] relates to SB.mhdgc-1. Put plainly: viability at highest tested concentration (MAXR) relative to DMSO; higher = less cytotoxic. Conditions: SB.mhdgc-1 (hereditary c.1380delA CDH1 gastric cancer). The procedure, abridged: (§1)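 Viability values are normalised to DMSO and given either at the highest concentration or as trapezoidal area under the curve. The assay used 500 hereditary or sporadic patient-derived gastric cancer cells in 5 μL medium per 1536 well, dosed by pintool with 23 nL of compound in DMSO at 11 threefold-diluted concentrations. CellTiter-Glo was added 48 h later for 30 min at room temperature, followed by luminescence reading on a ViewLux.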

Assay [2] concerns SB.msgc-1. The assay is described as above. As to conditions: SB.msgc-1 (sporadic gastric cancer). The procedure, abridged: as §1
The test system of assay [3] is SB.mhdgc-1. Put plainly: area under the dose-response curve of % viability (trapezoidal, 11 doses) (% viability x log10 concentration); higher = less cytotoxic. Conditions: SB.mhdgc-1 (hereditary c.1380delA CDH1 gastric cancer). Put shortly: as §1
Assay [4] concerns SB.msgc-1. The assay is described as above. As to conditions: SB.msgc-1 (sporadic gastric cancer). The procedure, abridged: as §1

SMILES strings stand for the structures. “And” between values parts separate entries of the source, which are not always exact repeats. Equal values may be shown once. Where a name gives a salt, the structure may show the parent alone.

For orientation: viability means a read-out of living cells in per cent, often relative to untreated cells. For `COC(=O)N[C@H](C(=O)N[C@@H](Cc1ccccc1)[C@@H](O)CN(Cc1ccc(-c2ccccn2)cc1)NC(=O)[C@@H](NC(=O)OC)C(C)(C)C)C(C)(C)C` [Atazanavir sulfate] (top concentration 46.0829 µM), the viability in assay [1] stood at 90.2%; in assay [2], 68.5%. The results for the “area under the dose-response curve” value in assay [3] and in assay [4] were 572 and 530, respectively.
Taken in the same sequence, the figures for `CN(C)[C@H]\1[C@@H]2[C@@H](O)[C@@H]\3C(=C)C4=C(C(=CC=C4)O)C(=O)C3=C(\O)[C@@]2(O)C(=O)\C(=C1O)C(N)=O` [Methacycline hydrochloride] (top concentration 46.0829 µM) were 126%, 43.3%, 604 and 501.
In the same order, the values of `CN1c2ccccc2C(=O)N2CCc3c([nH]c4ccccc34)C21` (configuration not stated) [Evodiamine] (top concentration 46.0829 µM) are 58.1%, 65%, 546 and 531.
Consider `COc1ccnc(C[S+]([O-])c2nc3cc(OC(F)F)ccc3[nH]2)c1OC` (configuration not stated) [Pantoprazole] (top concentration 46.0829 µM), for which the viability stood at 109% in assay [1] and 91.6% in assay [2]. In addition, the “area under the dose-response curve” value was found to be 509 in assay [3] and 473 in assay [4].
Consider `Clc2cccc(Cl)c2\N=C1/NCCN1` [Clonidine] (top concentration 46.0829 µM), for which the viability is 92.5% in assay [1] and 130% in assay [2]. The figures for the “area under the dose-response curve” value in assay [3] and in assay [4] were 591 and 537, respectively.
In the same order, the values of `CN1C(=O)\C(=C/C(=C1/NC2=C(F)C=C(I)C=C2)C(=O)NOCCO)C` [AZD-8330] (top concentration 46.0829 µM) are 46.3%, 62.7%, 374 and 404.
Turning to `CN[C@@H]1Cc2cccc3[nH]c(=O)n(c23)C1` [Sumanirole maleate] (top concentration 46.0829 µM), the figures for the viability in assay [1] and in assay [2] were 84.2% and 91.7%, respectively. The results for the “area under the dose-response curve” value in assay [3] and in assay [4] were 508 and 522, respectively.
In the case of `CC(C)CN(C[C@@H](O)[C@H](Cc1ccccc1)NC(=O)O[C@H]1CCOC1)[S+](=O)([O-])c1ccc(N)cc1` [Amprenavir] (top concentration 46.0829 µM), the viability in assay [1] was found to be 20.5%; in assay [2] it was 42.1%. Also, the “area under the dose-response curve” value in assay [3] worked out at 356; in assay [4] it was 463.
In the case of `CO[C@H]1/C=C/O[C@@]2(C)Oc3c(C)c(O)c4c(O)c(c(/C=N\N5CCN(C6CCCC6)CC5)c(O)c4c3C2=O)NC(=O)/C(C)=C\C=C\[C@H](C)[C@H](O)[C@@H](C)[C@@H](O)[C@@H](C)[C@H](OC(C)=O)[C@@H]1C` [Rifapentine] (top concentration 46.0829 µM), the viability amounted to 7.61% in assay [1] and 38.1% in assay [2]. The figures for the “area under the dose-response curve” value in assay [3] and in assay [4] were 233 and 322, respectively.
In the same order, the values of `COc1ccc(CCC(=O)c2c(O)cc(O[C@@H]3O[C@H](CO)[C@@H](O)[C@H](O)[C@H]3O[C@@H]3O[C@@H](C)[C@H](O)[C@@H](O)[C@H]3O)cc2O)cc1O` [Neohesperidin dihydrochalcone] (top concentration 46.0829 µM) are 68.4%, 49.3%, 504 and 502.
Consider `CO/N=C(\C(=O)N[C@@H]1C(=O)N2C(C(=O)OCOC(=O)C(C)(C)C)=C(/C=C\c3scnc3C)CS[C@H]12)c1csc(N)n1` [Cefditoren pivoxil] (top concentration 46.0829 µM), for which the figures for the viability in assay [1] and in assay [2] were 20.4% and 92.8%, respectively. The “area under the dose-response curve” value in assay [3] came to 509; in assay [4] it was 526.
For `COC1=C(OC)C(=O)C(C/C=C(\C)CC/C=C(\C)CC/C=C(\C)CC/C=C(\C)CC/C=C(\C)CC/C=C(\C)CC/C=C(\C)CC/C=C(\C)CC/C=C(\C)CCC=C(C)C)=C(C)C1=O` [Coenzyme Q10] (top concentration 46.0829 µM), the figures for the viability in assay [1] and in assay [2] were 92.7% and 117%, respectively. For the same molecule, the figures for the “area under the dose-response curve” value in assay [3] and in assay [4] were 544 and 563, respectively.
On to `Cc1ccc2nc(NCCN)c3ncc(C)n3c2c1` (top concentration 46.0829 µM), for which the viability in assay [1] stood at 12.4%; in assay [2], 41.7%. Further, the “area under the dose-response curve” value in assay [3] turned out to be 366; in assay [4], 482.
In the case of `COc1ccc([C@@H]2CC(=O)c3c(O)cc(O[C@@H]4O[C@H](CO[C@@H]5O[C@@H](C)[C@H](O)[C@@H](O)[C@H]5O)[C@@H](O)[C@H](O)[C@H]4O)cc3O2)cc1O` [Aurantiamarin] (top concentration 46.0829 µM), in assay [1], the viability was 87.1% and 76.4%. Also, the “area under the dose-response curve” value is 505 and 579 in assay [3]; 501 and 495 in assay [4].
On to `CC(C)(C)COc1ccc(-n2cc(C(=O)O)cn2)cc1C#N` [Piraxostat] (top concentration 46.0829 µM), for which the “area under the dose-response curve” value in assay [3] is 552; in assay [4], 613.

The record behind these values is the supplement of paper PMC5412046.
